According to PubChem BioAssay (NCI):
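96-well plates; 48 h exposure; 5 concentrations. Endpoints by linear interpolation between flanking doses. Not reached: highest tested concentration assigned. GI50 is the concentration that inhibits growth by half. The concentration for full growth arrest is given as TGI.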

Experiments:
Test in all cases: growth of human tumour cells (NCI), 48 h
[1] = test system: 786-0 renal
[2] = test system: A498 renal
[3] = test system: A549 NSCLC
[4] = test system: ACHN renal
[5] = test system: BT-549 breast
[6] = test system: CAKI-1 renal
[7] = test system: CCRF-CEM leukemia
[8] = test system: COLO 205 colon
[9] = test system: DU-145 prostate
[10] = test system: EKVX NSCLC
[11] = test system: HCC-2998 colon
[12] = test system: HCT-116 colon
[13] = test system: HCT-15 colon
[14] = test system: HL-60(TB) leukemia
[15] = test system: HOP-62 NSCLC
[16] = test system: HOP-92 NSCLC
[17] = test system: HS 578T breast
[18] = test system: HT29 colon
[19] = test system: IGROV1 ovarian
[20] = test system: K-562 leukemia
[21] = test system: KM12 colon
[22] = test system: LOX IMVI melanoma
[23] = test system: M14 melanoma
[24] = test system: MALME-3M melanoma
[25] = test system: MCF7 breast
[26] = test system: MDA-MB-231 breast
[27] = test system: MDA-MB-435
[28] = test system: MOLT-4 leukemia
[29] = test system: NCI-H226 lung
[30] = test system: NCI-H23 lung
[31] = test system: NCI-H460 lung
[32] = test system: NCI-H522 lung
[33] = test system: NCI/ADR-RES ovarian
[34] = test system: OVCAR-3 ovarian
[35] = test system: OVCAR-4 ovarian
[36] = test system: OVCAR-5 ovarian
[37] = test system: OVCAR-8 ovarian
[38] = test system: PC-3 prostate
[39] = test system: RPMI-8226 leukemia
[40] = test system: RXF 393 renal
[41] = test system: SF-268 CNS
[42] = test system: SF-295 CNS
[43] = test system: SF-539 CNS
[44] = test system: SK-MEL-2 melanoma
[45] = test system: SK-MEL-28 melanoma
[46] = test system: SK-MEL-5 melanoma
[47] = test system: SK-OV-3 ovarian
[48] = test system: SN12C renal
[49] = test system: SNB-19 CNS
[50] = test system: SNB-75 CNS
[51] = test system: SR leukemia
[52] = test system: SW-620 colon
[53] = test system: T-47D breast
[54] = test system: TK-10 renal
[55] = test system: U251 CNS
[56] = test system: UACC-257 melanoma
[57] = test system: UO-31 renal

SMILES: CC(C)CCN[C@@H]1CCc2cc(O)c(N3CC(=O)NS3(=O)=O)c(F)c2C1
- GI50 [1]: > 100 µM
- TGI [1]: > 100 µM
- GI50 [2]: > 100 µM
- TGI [2]: > 100 µM
- GI50 [3]: > 100 µM
- TGI [3]: > 100 µM
- GI50 [4]: > 100 µM
- TGI [4]: > 100 µM
- GI50 [5]: 5.44 µM
- TGI [5]: > 100 µM
- GI50 [6]: 3.41 µM
- TGI [6]: > 100 µM
- GI50 [7]: > 100 µM
- TGI [7]: > 100 µM
- GI50 [8]: > 100 µM
- TGI [8]: > 100 µM
- GI50 [9]: > 100 µM
- TGI [9]: > 100 µM
- GI50 [10]: > 100 µM
- TGI [10]: > 100 µM
- GI50 [11]: > 100 µM
- TGI [11]: > 100 µM
- GI50 [12]: > 100 µM
- TGI [12]: > 100 µM
- GI50 [13]: > 100 µM
- TGI [13]: > 100 µM
- GI50 [14]: > 100 µM
- TGI [14]: > 100 µM
- GI50 [15]: > 100 µM
- TGI [15]: > 100 µM
- GI50 [16]: 16.1 µM
- TGI [16]: > 100 µM
- GI50 [17]: > 100 µM
- TGI [17]: > 100 µM
- GI50 [18]: > 100 µM
- TGI [18]: > 100 µM
- GI50 [19]: > 100 µM
- TGI [19]: > 100 µM
- GI50 [20]: > 100 µM
- TGI [20]: > 100 µM
- GI50 [21]: > 100 µM
- TGI [21]: > 100 µM
- GI50 [22]: 52.7 µM
- TGI [22]: > 100 µM
- GI50 [23]: > 100 µM
- TGI [23]: > 100 µM
- GI50 [24]: > 100 µM
- TGI [24]: > 100 µM
- GI50 [25]: > 100 µM
- TGI [25]: > 100 µM
- GI50 [26]: > 100 µM
- TGI [26]: > 100 µM
- GI50 [27]: > 100 µM
- TGI [27]: > 100 µM
- GI50 [28]: > 100 µM
- TGI [28]: > 100 µM
- GI50 [29]: > 100 µM
- TGI [29]: > 100 µM
- GI50 [30]: > 100 µM
- TGI [30]: > 100 µM
- GI50 [31]: > 100 µM
- TGI [31]: > 100 µM
- GI50 [32]: > 100 µM
- TGI [32]: > 100 µM
- GI50 [33]: > 100 µM
- TGI [33]: > 100 µM
- GI50 [34]: > 100 µM
- TGI [34]: > 100 µM
- GI50 [35]: > 100 µM
- TGI [35]: > 100 µM
- GI50 [36]: > 100 µM
- TGI [36]: > 100 µM
- GI50 [37]: > 100 µM
- TGI [37]: > 100 µM
- GI50 [38]: > 100 µM
- TGI [38]: > 100 µM
- GI50 [39]: > 100 µM
- TGI [39]: > 100 µM
- GI50 [40]: 0.812 µM
- TGI [40]: 8.01 µM
- GI50 [41]: > 100 µM
- TGI [41]: > 100 µM
- GI50 [42]: > 100 µM
- TGI [42]: > 100 µM
- GI50 [43]: 20.3 µM
- TGI [43]: > 100 µM
- GI50 [44]: > 100 µM
- TGI [44]: > 100 µM
- GI50 [45]: > 100 µM
- TGI [45]: > 100 µM
- GI50 [46]: > 100 µM
- TGI [46]: > 100 µM
- GI50 [47]: > 100 µM
- TGI [47]: > 100 µM
- GI50 [48]: > 100 µM
- TGI [48]: > 100 µM
- GI50 [49]: > 100 µM
- TGI [49]: > 100 µM
- GI50 [50]: 1.17 µM
- TGI [50]: > 100 µM
- GI50 [51]: 1.78 µM
- TGI [51]: > 100 µM
- GI50 [52]: > 100 µM
- TGI [52]: > 100 µM
- GI50 [53]: > 100 µM
- TGI [53]: > 100 µM
- GI50 [54]: > 100 µM
- TGI [54]: > 100 µM
- GI50 [55]: > 100 µM
- TGI [55]: > 100 µM
- GI50 [56]: > 100 µM
- TGI [56]: > 100 µM
- GI50 [57]: 16.8 µM
- TGI [57]: > 100 µM
